Experiments:
[1] = biological target: T1, CHO cells expressing α2β1 integrin (Homo sapiens, UniProt P05556+P17301); assay: Cell adhesion assay, CHO-α2 cells on collagen type I; assay type: cell-based, Chinese Hamster; settings: for Emax at 100 µM / inhibition at 50 µM: CHO; for EC50: CHO-α2 cells, collagen type I, read-out: EC50, adhesion
T1 sequence (P17301 1-1181): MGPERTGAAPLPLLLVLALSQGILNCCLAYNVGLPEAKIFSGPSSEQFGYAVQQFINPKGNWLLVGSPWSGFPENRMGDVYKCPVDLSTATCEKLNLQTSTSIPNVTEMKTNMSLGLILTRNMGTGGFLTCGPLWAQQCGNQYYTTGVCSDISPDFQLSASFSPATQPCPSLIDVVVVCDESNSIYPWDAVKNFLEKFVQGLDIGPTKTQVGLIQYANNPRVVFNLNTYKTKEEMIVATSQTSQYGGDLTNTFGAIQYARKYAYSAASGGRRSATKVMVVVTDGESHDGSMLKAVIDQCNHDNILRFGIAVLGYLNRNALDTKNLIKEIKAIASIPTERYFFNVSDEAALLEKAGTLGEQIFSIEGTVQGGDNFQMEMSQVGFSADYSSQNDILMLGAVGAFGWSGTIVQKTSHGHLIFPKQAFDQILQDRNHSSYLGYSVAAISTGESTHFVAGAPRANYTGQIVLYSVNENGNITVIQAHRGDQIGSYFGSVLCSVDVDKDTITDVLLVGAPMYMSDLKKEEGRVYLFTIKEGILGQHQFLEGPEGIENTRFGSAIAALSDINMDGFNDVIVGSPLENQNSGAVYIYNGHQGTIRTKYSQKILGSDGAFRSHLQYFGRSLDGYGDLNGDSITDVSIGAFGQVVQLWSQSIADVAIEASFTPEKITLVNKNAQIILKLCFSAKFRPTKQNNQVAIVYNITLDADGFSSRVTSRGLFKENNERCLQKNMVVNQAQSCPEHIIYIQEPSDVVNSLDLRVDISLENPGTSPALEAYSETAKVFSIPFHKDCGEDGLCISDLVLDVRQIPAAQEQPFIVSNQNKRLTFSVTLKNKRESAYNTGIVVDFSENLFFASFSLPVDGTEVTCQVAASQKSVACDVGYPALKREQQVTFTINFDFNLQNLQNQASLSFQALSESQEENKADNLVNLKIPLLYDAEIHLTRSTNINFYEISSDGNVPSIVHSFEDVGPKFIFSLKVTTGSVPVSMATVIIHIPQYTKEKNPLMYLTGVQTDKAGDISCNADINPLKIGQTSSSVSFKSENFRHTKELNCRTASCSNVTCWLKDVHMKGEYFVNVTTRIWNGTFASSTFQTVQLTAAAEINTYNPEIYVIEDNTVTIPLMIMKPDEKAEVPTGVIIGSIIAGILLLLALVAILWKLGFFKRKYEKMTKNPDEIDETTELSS
Protocol: (§1) Chinese Hamster Ovary (CHO) cell clone expressing wild type α2 integrin was used in cell adhesion assay. Cells were suspended in serum free medium containing 0.1 mg/ml cycloheximide (Sigma) and the compounds were preincubated with the cells prior to transfer to the wells. Cells (150000/well) were allowed to attach on collagen type I coated wells (in the presence and absence of inhibitor compounds) for 2 h at +37° C. and after that non-adherent cells were removed. Fresh serum free medium was added and the living cells were detected using a cell viability kit (Roche) according to the manufacturers protocol.
(§2) For this purpose CHO cells were transfected to express α2β1 integrin on their surface as their only collagen receptor.

α1 I-domain [2] = biological target: T2, α1 I-domain (Homo sapiens, UniProt P56199); assay: Solid-phase binding assay, α1 I-domain binding to type IV collagen; settings: FIG. 6B
T2 construct: corresponding to amino acids 123-338 of the whole α1 integrin; made in house; host or cells: E. coli BL21 (pGEX-4T-3)
T2 sequence (P56199 151-366): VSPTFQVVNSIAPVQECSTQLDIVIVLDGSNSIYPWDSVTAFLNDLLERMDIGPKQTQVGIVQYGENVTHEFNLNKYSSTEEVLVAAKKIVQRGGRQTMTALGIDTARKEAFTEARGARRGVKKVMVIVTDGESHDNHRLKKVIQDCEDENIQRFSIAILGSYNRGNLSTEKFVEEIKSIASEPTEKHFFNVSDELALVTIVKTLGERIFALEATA
Protocol: (§3) Solid-phase binding assay for α1-domains—The coating of a 96-well high binding microtiter plate (Nune) was done by exposure to 0.1 ml of PBS containing 5 μg/cm2 (15 μg/ml) collagens or 20 μg/ml triple-helical peptides overnight at +4° C. Blank wells were coated with 1:1 solution of 0.1 ml Delfia® Diluent II (Wallac) and PBS. Residual protein absorption sites on all wells were blocked with 1:1 solution of 0.1 ml Delfia® Diluent II (Wallac) and PBS. Recombinant proteins (αI-GST) were added to the coated wells at a desired concentration in Delfia® Assay Buffer and incubated for 1 h at room temperature. Europium-labelled anti-GST antibody (Wallac) was then added (typically 1:1000), and the mixture was incubated for 1 h at room temperature. All incubations mentioned above were done in the presence of 2 mM MgCl2. Delfia® enhancement solution (Wallac) was added to each well and the Europium signal was measured by time-resolved fluorometry (Victor2 multilabel counter, Wallac). At least three parallel wells were analyzed. In some cases some what modified solid-phase assay was used and it was performed according Tulla et al, 2001. It uses anti-GST and Europium-labelled protein G instead of Europium-labelled anti-GST antibody. […]

α2 I-domain [3] = biological target: T3, α2 I-domain (Homo sapiens, UniProt P17301); assay: α2 I-domain binding to RKK-peptide (europium-labelled protein G assay); settings: FIG. 7B
T3 construct: corresponded to amino acids 124-339 of the whole α2 integrin; made in house; host or cells: E. coli BL21 (pGEX-2T)
T3 sequence (P17301 153-368): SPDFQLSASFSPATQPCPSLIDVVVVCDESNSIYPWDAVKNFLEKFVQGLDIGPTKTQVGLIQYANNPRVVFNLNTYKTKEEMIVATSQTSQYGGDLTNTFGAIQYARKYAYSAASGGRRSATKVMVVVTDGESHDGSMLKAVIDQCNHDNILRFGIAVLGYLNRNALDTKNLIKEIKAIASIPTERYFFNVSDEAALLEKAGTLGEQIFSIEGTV
Protocol: (§4) Solid-phase binding assay for α1-domains—The coating of a 96-well high binding microtiter plate (Nune) was done by exposure to 0.1 ml of PBS containing 5 μg/cm2 (15 μg/ml) collagens or 20 μg/ml triple-helical peptides overnight at +4° C. Blank wells were coated with 1:1 solution of 0.1 ml Delfia® Diluent II (Wallac) and PBS. Residual protein absorption sites on all wells were blocked with 1:1 solution of 0.1 ml Delfia® Diluent II (Wallac) and PBS. Recombinant proteins (αI-GST) were added to the coated wells at a desired concentration in Delfia® Assay Buffer and incubated for 1 h at room temperature. Europium-labelled anti-GST antibody (Wallac) was then added (typically 1:1000), and the mixture was incubated for 1 h at room temperature. All incubations mentioned above were done in the presence of 2 mM MgCl2. Delfia® enhancement solution (Wallac) was added to each well and the Europium signal was measured by time-resolved fluorometry (Victor2 multilabel counter, Wallac). At least three parallel wells were analyzed. In some cases some what modified solid-phase assay was used and it was performed according Tulla et al, 2001. It uses anti-GST and Europium-labelled protein G instead of Europium-labelled anti-GST antibody.
RKK-peptides are known to bind to MIDAS of α2 I-domain (Ivaska et al., 1999). […]

α2 I-domain [4] = biological target: T3, α2 I-domain; assay: Solid-phase binding assay, α2 I-domain binding to type IV collagen; settings: FIG. 6B
Protocol: as §3

α1 I-domain [5] = biological target: T2, α1 I-domain; assay: Solid-phase binding assay, α1 I-domain binding to type I collagen; settings: FIG. 6B, 7A
Protocol: as §4
(§5) The tetracyclic Streptomyces compounds synthesised in Example 1, where screened for inhibition of collagen binding to α1 and α2 I-domains, using the α I-domain assay described in Example 4. […] L3015 could inhibit the binding of both α1I and α2 I-domains to type I and type IV collagen (FIG. 6B).
Furthermore α1I and α2 I-domain binding to collagen I in the presence of lovastatin was tested in the europium-labelled anti-GST assay described in Example 4. Lovastatin is an allosteric inhibitor of leukocyte integrin α I-domains (e.g. αL I-domain), and the binding site of lovastatin represents an optional binding site for possible modulators. […] These biological tests gave further evidence that collagen receptor α I-domains are inhibited by direct blocking of the MIDAS surface by tetracyclic polyketide.

α2 I-domain [6] = biological target: T3, α2 I-domain; assay: Solid-phase binding assay, α2 I-domain binding to type I collagen; settings: for inhibition of α2 I-domain binding to type I collagen (in words): FIG. 6B, 7A, 8A
Protocol: as §4, §5
Based on the utilization of 3D model other compounds from the polyketide family were tested. The compounds were tested in the europium-labelled anti-GST assay described in Example 4. Tetracyclic polyketides L3007, L3008, and L3009 could inhibit α2 I-domain binding to type I collagen (FIG. 8A).

PC-3 cells = assay: Cell invasion assay, PC-3 cells through Matrigel; assay type: cell-based; settings: Homo sapiens, 72 hours
Protocol: Experimental procedure. […] Inserts were stored at −20° C. […] The remaining media was aspirated. […] Inserts were allowed to dry. Fixed invaded cells were calculated under the microscope. Invasion % was calculated as a comparison to the control.

[7] = biological target: T4, CHO cells expressing α2β1 integrin (Homo sapiens, UniProt P17301); assay: Cell adhesion assay, CHO-α2 cells on collagen type I; assay type: cell-based, Chinese Hamster; settings: FIG. 10A, 10B
T4 sequence (P17301 1-1181): T1 sequence (P17301 1-1181)
Protocol: as §1, §2

[8] = test system: platelet aggregation in whole blood; assay: Platelet function analyzer PFA-100 closure time of whole blood; assay type: cell-based; settings: PFA-100, collagen plus epinephrine; FIG. 12
Protocol: Mean and standard deviations were calculated for each treatment.

[9] = test system: CHO expressing mutated α2β1 integrin (tyrosine 285, leucine 286, leucine 296); assay: Cell adhesion assay with CHO cells expressing mutated α2β1 integrin; assay type: cell-based, Chinese Hamster; settings: data not shown

Emax at 100 µM [1] [%]	EC50 [1] [µM]	Molecule	other results
79	42	O=C(c1ccccc1)c1ccc(NS(=O)(=O)c2ccc(Cl)cc2Cl)cc1 [Compound 416]	inhibition at 50 µM [1]: 44%
86	37	O=S(=O)(Nc1cccc(-c2ccc(F)cc2)c1)c1ccc(Cl)cc1Cl [Compound 403]	–
–	–	CCc1cc(O)c2c(O)c3c(cc2c1C(=O)OC)C(=O)c1cccc(O)c1C3=O [Compound L3015, methyl 2-ethyl-4,5,7-trihydroxy-6,11 dioxonaphthacenecarboxylate]	inhibition of α1 I-domain binding to type IV collagen (in words) (α1 I-domain [2]): could inhibit; displacement of RKK peptide at MIDAS (α2 I-domain [3]): can displace; inhibition of α2 I-domain binding to type IV collagen (in words) (α2 I-domain [4]): could inhibit; inhibition of α1 I-domain binding to type I collagen (in words) (α1 I-domain [5]): could inhibit; inhibition of α2 I-domain binding to type I collagen (in words) (α2 I-domain [6]): could inhibit; inhibition at 30 µM (α2 I-domain [6]; at 0.03 mM concentration, dose dependent, FIG. 6A): ~50%
89	29	CN(C)CCN(c1ccc(N(C)C)cc1)S(=O)(=O)c1cccc(-c2ccc(F)cc2)c1 [Compound 354]	–
59	14	CN(c1ccc(NC(=O)N2CCNC2=O)cc1)S(=O)(=O)c1cccc(-c2ccc(F)cc2)c1 [Compound 430]	–
–	9.4	O=S(=O)(Nc1ccc(C(O)c2ccccc2)cc1)c1cccc(-c2ccc(F)cc2)c1 (centres unmarked) [Compound 452]	inhibition at 50 µM [1]: 83%; EC50 (PC-3 cells): 0.8 µM
22	–	Cn1cccc1C(=O)Nc1ccc(NS(=O)(=O)c2cccc(-c3ccc(F)cc3)c2)cc1 [Compound 442]	–
74	30	CN(C)c1ccc(N(CCn2ccnc2)S(=O)(=O)c2cccc(-c3ccc(F)cc3)c2)cc1 [Compound 358]	–
–	–	CC[C@H](C)C(=O)O[C@H]1C[C@@H](C)C=C2C=C[C@H](C)[C@H](CC[C@@H]3C[C@@H](O)CC(=O)O3)[C@H]21 [lovastatin, reference compound]	inhibition of α1 I-domain binding to type I collagen (in words) (α1 I-domain [5]): no effect; inhibition of α2 I-domain binding to type I collagen (in words) (α2 I-domain [6]): no effect
–	–	methyl 2-ethyl-2,5,7,12-tetrahydroxy-4,6,11-trioxo-1,2,3-trihydronaphthacene-carboxylate [Compound L3007]	inhibition of α2 I-domain binding to type I collagen (in words) (α2 I-domain [6]): could inhibit
74	38	N#Cc1ccc(NS(=O)(=O)c2cccc(-c3ccc(F)cc3)c2)cc1 [Compound 448]	–
79	15	O=C(c1ccccc1)c1cccc(NS(=O)(=O)c2cccc(-c3ccc(F)cc3)c2)c1 [Compound 432]	–
67	39	CN(C)c1ccc(N(CCO)S(=O)(=O)c2cccc(-c3ccc(F)cc3)c2)cc1 [Compound 359]	–
–	16	O=S(=O)(Nc1cccc(-c2ccc(F)cc2)c1)c1ccc(Cl)cc1 [Compound 398]	inhibition at 50 µM [1]: 83%
–	–	CCc1cc(O)c2c(O)c3c(c(O)c2c1C(=O)OC)C(=O)c1cccc(O)c1C3=O [Compound L3008, methyl 2-ethyl-4,5,7,12-tetrahydroxy-6,11-dioxonaphthacenecarboxylate]	effect of mutation of tyrosine 285, leucine 286, leucine 296 on the inhibitory effect in adhesion of CHO cells expressing α2β1 to collagen I [9]: significantly decreased; inhibition of α2 I-domain binding to type I collagen (in words) (α2 I-domain [6]): could inhibit
–	39	CC(=O)c1ccc(NS(=O)(=O)c2cccc(-c3ccc(F)cc3)c2)cc1 [Compound 383]	–
78	8.7	O=[N+]([O-])c1ccc(NS(=O)(=O)c2cccc(-c3ccc(F)cc3)c2)cc1 [Compound 440]	–

Molecule	Emax at 100 µM [1] [%]	EC50 [1] [µM]	other results
O=C(c1ccccc1)c1ccc(NS(=O)(=O)c2cccc(-c3ccc(F)cc3)c2)cc1 [Compound 384]	81	12	–
O=C(c1ccccc1)c1ccc([N-]S(=O)(=O)c2cccc(-c3ccc(F)cc3)c2)cc1.[Na+] [Compound 434]	–	9.1	Emax at 100 µM ([1]; at 100 uM): 78%; inhibition of cell adhesion to collagen type I (in words) [7]: potent inhibitor; closure time of the blood [8]: increase the closure time; effect of mutation of tyrosine 285, leucine 286, leucine 296 on the inhibitory effect in adhesion of CHO cells expressing α2β1 to collagen I [9]: significantly decreased
